The results in this text go back to patent publication US6013795A, “Alpha-branched fluoroalkylcarbonyl fluorides and their derivatives” (3M Innovative Properties Company, priority 1996, dated 2000).

Some results are limits rather than exact numbers.

One data set is described as follows: surface tension of aqueous surfactant solutions and critical micelle concentration (K-12 Processor Tensiometer). The note with it: carboxylate salts, deionized water; Table 5. The class given is physicochemical.
Description: Critical Micelle Concentration (CMC): The critical micelle concentration is defined as the concentration at which further surface tension is no longer lowered with increasing levels of surfactant. […] Surface tension is then plotted vs. log concentration and the data points are connected. The resulting curve has a nearly horizontal flat portion at concentrations above the CMC and has a negative steep slope at concentrations below the CMC. The CMC is defined as the lowest surfactant concentration in the horizontal flat portion of the curve.
(§1) Then the critical micelle concentration (CMC) was determined for each surfactant.
as §1
For `O=C(O)C(F)(C(F)(F)F)C(F)(F)C(F)(F)C(F)(F)C(F)(F)C(F)(F)F` (stereo not drawn) [Example M21, C5 F11 CF(CF3)COO^- K^+], the CMC is > 10000 ppm and the “Surf. Tens. at the CMC” value was 22.5 dynes/cm.
On to `O=C(O)C(F)(C(F)(F)F)C(F)(F)C(F)(F)C(F)(F)C(F)(F)C(F)(F)C(F)(F)F` (stereo not drawn) [Example M16, C6 F13 CF(CF3)COO^- H4 N^+], for which the CMC is reported as 8000 ppm and the “Surf. Tens. at the CMC” value was 17.9 dynes/cm.
Taken in the same sequence, the figures for `O=C(O)C(F)(C(F)(F)F)C(F)(F)C(F)(F)C(F)(F)C(F)(F)C(F)(F)C(F)(F)C(F)(F)C(F)(F)F` (stereo not drawn) [Example M24, C8 F17 CF(CF3)COO^- K^+] were 3000 ppm and 16.4 dynes/cm.
Regarding `O=C(O)C(F)(C(F)(F)F)C(F)(F)C(F)(F)C(F)(F)C(F)(F)C(F)(F)F` (stereo not drawn) [Example M15, C5 F11 CF(CF3)COO^- H4 N^+], the CMC is recorded as > 10000 ppm and the “Surf. Tens. at the CMC” value worked out at 22.1 dynes/cm.

The same data set, now with this note: deionized water; Table 3.
As to `C[n+]1ccc(C(=O)NCCOC(=O)C(F)(C(F)(F)F)C(F)(F)C(F)(F)C(F)(F)C(F)(F)C(F)(F)C(F)(F)C(F)(F)F)cc1` (stereo not drawn) [Example F1], the CMC amounted to 500 ppm and the “Surf. Tens. at the CMC” value stood at 15.0 dynes/cm.
Taken in the same sequence, the figures for `C[N+](C)(CCO)CCCNC(=O)C(F)(C(F)(F)F)C(F)(F)C(F)(F)C(F)(F)C(F)(F)C(F)(F)F` (stereo not drawn) [Example F3] were 1000 ppm and 17.0 dynes/cm.
Regarding `CN(C)CCCN(CCCN(C)C)C(=O)C(F)(C(F)(F)F)C(F)(F)C(F)(F)C(F)(F)C(F)(F)C(F)(F)C(F)(F)C(F)(F)F` (stereo not drawn) [Example F9, C7 F15 CF(CF3)CON[C3 H6 N^+ (CH3)2 H]2 2[^- OOCCH3]], the CMC was 1000 ppm and the “Surf. Tens. at the CMC” value was 22.0 dynes/cm.
Taken in the same sequence, the figures for `O=C(OCCc1cccc[n+]1[O-])C(F)(C(F)(F)F)C(F)(F)C(F)(F)C(F)(F)C(F)(F)C(F)(F)C(F)(F)F` (stereo not drawn) [Example E12] were 8000 ppm and 18.3 dynes/cm.
Regarding “C8 F17 CF(CF3)CO(OCH2 CH2)16 OCH3 [Example J1]”, the CMC worked out at 150 ppm and the “Surf. Tens. at the CMC” value is 22 dynes/cm.
The matching figures for `O=C(NCCOC(=O)C(F)(C(F)(F)F)C(F)(F)C(F)(F)C(F)(F)C(F)(F)C(F)(F)C(F)(F)C(F)(F)F)c1cc[n+]([O-])cc1` (stereo not drawn) [Example E10]: 400 ppm and 14.5 dynes/cm.
Consider `C[n+]1ccc(C(=O)NCCOC(=O)C(F)(C(F)(F)F)C(F)(F)C(F)(F)C(F)(F)C(F)(F)C(F)(F)C(F)(F)F)cc1` (stereo not drawn) [Example F2], for which the CMC is 30 ppm and the “Surf. Tens. at the CMC” value is recorded as 15.5 dynes/cm.
`C[N+](C)([O-])CCCNC(=O)C(F)(C(F)(F)F)C(F)(F)C(F)(F)C(F)(F)C(F)(F)C(F)(F)F` (stereo not drawn) [Example E2, C5 F11 CF(CF3)CONH(CH2)3 N^+ (CH3)2 O^-]: the CMC is 500 ppm and the “Surf. Tens. at the CMC” value was found to be 17.5 dynes/cm.
Turning to `C[N+](C)([O-])CCCNC(=O)C(F)(C(F)(F)F)C(F)(F)C(F)(F)C(F)(F)C(F)(F)C(F)(F)C(F)(F)C(F)(F)F` (stereo not drawn) [Example E1, C7 F15 CF(CF3)CONH(CH2)3 N^+ (CH3)2 O^-], the CMC is recorded as 20 ppm and the “Surf. Tens. at the CMC” value is on record as 16.3 dynes/cm.
Taken in the same sequence, the figures for `C[N+](C)(CCO)CCCNC(=O)C(F)(C(F)(F)F)C(F)(F)C(F)(F)C(F)(F)C(F)(F)C(F)(F)C(F)(F)C(F)(F)F` (stereo not drawn) [Example F4] were 300 ppm and 19.0 dynes/cm.
Taken in the same sequence, the figures for `O=C([O-])CC[N+]1(CCCNC(=O)C(F)(C(F)(F)F)C(F)(F)C(F)(F)C(F)(F)C(F)(F)C(F)(F)C(F)(F)C(F)(F)F)CCOCC1` (stereo not drawn) [Example K3] were 1000 ppm and 19.2 dynes/cm.
